# Reference: paper PMC3385512 (Science Translational Medicine, 2012)
# Assays:
# [1] = biological target: Ba/F3 cells expressing EML4-ALK L1196M (Homo sapiens, UniProt Q9HC35+Q9UM73, L1196M); assay: Ba/F3 cell survival assay; type: cell-based; conditions: without IL-3
# [2] = tested on: parental, IL-3-dependent Ba/F3 cells; assay: Ba/F3 cell survival assay; type: cell-based, murine; conditions: parental Ba/F3 cells cultured with IL-3 (off-target toxicity control)
# [3] = biological target: Ba/F3 cells expressing EML4-ALK 1151Tins (Homo sapiens, UniProt Q9HC35+Q9UM73, DUP1151-1151); assay: Ba/F3 cell survival assay; type: cell-based; conditions: Ba/F3 EML4-ALK 1151Tins, without IL-3
# [4] = biological target: T1, Ba/F3 cells expressing EML4-ALK S1206Y (Homo sapiens, UniProt Q9HC35+Q9UM73, S1206Y); assay: Ba/F3 cell survival assay; type: cell-based; conditions: without IL-3
# T1 sequence (Q9HC35+Q9UM73 with tags, fused parts or gaps Q9UM73:S1206Y): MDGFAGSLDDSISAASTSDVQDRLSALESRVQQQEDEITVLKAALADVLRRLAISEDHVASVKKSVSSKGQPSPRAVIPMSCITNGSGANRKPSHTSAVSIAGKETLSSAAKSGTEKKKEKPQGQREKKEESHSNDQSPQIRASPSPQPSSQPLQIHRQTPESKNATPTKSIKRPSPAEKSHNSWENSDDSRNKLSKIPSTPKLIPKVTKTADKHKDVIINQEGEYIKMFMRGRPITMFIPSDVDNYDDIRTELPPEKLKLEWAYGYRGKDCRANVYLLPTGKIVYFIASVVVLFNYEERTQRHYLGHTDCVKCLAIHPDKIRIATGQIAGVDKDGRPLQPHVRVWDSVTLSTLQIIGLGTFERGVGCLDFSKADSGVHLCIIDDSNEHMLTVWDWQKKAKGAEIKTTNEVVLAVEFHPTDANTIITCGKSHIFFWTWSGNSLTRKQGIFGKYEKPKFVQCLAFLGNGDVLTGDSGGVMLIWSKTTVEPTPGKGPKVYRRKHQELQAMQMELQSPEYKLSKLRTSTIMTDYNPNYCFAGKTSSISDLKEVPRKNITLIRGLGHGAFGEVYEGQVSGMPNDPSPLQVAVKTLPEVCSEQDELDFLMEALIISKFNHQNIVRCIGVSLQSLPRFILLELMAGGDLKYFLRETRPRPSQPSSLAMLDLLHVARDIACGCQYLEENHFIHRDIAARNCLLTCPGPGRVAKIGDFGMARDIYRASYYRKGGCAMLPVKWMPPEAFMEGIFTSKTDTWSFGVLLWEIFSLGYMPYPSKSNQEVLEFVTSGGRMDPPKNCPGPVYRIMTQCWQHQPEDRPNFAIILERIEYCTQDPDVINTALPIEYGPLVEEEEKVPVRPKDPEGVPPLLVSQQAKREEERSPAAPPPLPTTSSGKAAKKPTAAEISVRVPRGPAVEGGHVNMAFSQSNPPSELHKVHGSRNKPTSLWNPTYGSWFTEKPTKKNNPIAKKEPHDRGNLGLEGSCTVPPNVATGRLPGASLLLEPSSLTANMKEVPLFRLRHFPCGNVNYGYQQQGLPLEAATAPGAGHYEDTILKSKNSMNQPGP
# [5] = tested on: H3122 CR3 cells; assay: cell survival assay; type: cell-based; conditions: for sensitivity in cell survival assay: H3122 CR3 (no ALK mutation, EGFR activation), gefitinib 2 μM in combination
# [6] = biological target: T2, Ba/F3 cells expressing EML4-ALK G1202R (Homo sapiens, UniProt Q9HC35+Q9UM73, G1202R); assay: Ba/F3 cell survival assay; type: cell-based
# T2 sequence (Q9HC35+Q9UM73 with tags, fused parts or gaps Q9UM73:G1202R): T1 sequence (Q9HC35+Q9UM73 with tags, fused parts or gaps Q9UM73:S1206Y) with G641R, Y645S
# [7] = tested on: phosphorylation of EML4-ALK; assay: phospho-ALK immunoblotting in Ba/F3 cells; type: cell-based; conditions: all Ba/F3 lines expressing wild-type or mutant EML4-ALK
# [8] = tested on: H3122 CR2 cells; assay: cell survival assay; type: cell-based
# [9] = biological target: Ba/F3 cells expressing wild-type EML4-ALK (Homo sapiens, UniProt Q9HC35+Q9UM73); assay: Ba/F3 cell survival assay; type: cell-based; conditions: without IL-3
# [10] = biological target: ALK (V1058-P1620) wild type (Homo sapiens, UniProt Q9UM73); assay: in vitro kinase assay; type: biochemical; conditions: in vitro kinase assay data, tables S1 and S2
# [11] = tested on: MGH006 cells; conditions: from crizotinib-naive ALK-positive NSCLC patient
# [12] = tested on: H3122 cells; assay: cell survival assay; type: cell-based; conditions: parental H3122 cells (EML4-ALK variant 1)
# [13] = tested on: H3122 CR3 cells; conditions: H3122 CR3, 1 μM crizotinib, 2 μM gefitinib or the combination, 72 hours
# [14] = tested on: H3122 cells; assay: apoptosis assay; type: cell-based; conditions: parental H3122, 1 μM crizotinib, 72 hours
# [15] = tested on: H3122 CR1 cells; assay: cells; conditions: Homo sapiens, NCI-H3122, 72 h
# [16] = tested on: KIT-overexpressing H3122 cells; conditions: imatinib 1 μM with crizotinib 1 μM and SCF 100 ng/ml
# Chain of ALK (V1058-P1620) wild type (Q9UM73 1058-1620): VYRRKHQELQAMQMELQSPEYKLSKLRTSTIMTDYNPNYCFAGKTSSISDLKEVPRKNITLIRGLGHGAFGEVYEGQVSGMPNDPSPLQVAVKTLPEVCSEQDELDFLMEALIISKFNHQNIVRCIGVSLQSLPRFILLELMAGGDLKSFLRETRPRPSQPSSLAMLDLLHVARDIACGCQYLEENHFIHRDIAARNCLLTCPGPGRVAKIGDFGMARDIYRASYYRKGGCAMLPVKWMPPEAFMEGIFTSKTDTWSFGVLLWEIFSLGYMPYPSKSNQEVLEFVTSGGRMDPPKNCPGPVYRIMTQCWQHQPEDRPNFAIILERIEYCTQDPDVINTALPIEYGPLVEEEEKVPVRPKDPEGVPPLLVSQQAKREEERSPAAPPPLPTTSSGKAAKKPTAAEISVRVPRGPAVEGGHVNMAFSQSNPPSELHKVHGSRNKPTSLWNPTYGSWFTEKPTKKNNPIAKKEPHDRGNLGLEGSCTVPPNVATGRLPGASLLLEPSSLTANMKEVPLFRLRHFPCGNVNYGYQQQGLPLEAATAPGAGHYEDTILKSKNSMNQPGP
compound,measurement,setting,value
"C=CCNC1=C2C[C@@H](C)C[C@H](OC)[C@H](O)[C@@H](C)/C=C(\C)[C@H](OC(N)=O)[C@@H](OC)/C=C\C=C(/C)C(=O)NC(=CC1=O)C2=O [17-AAG, 17-allylamino-17-demethoxygeldanamycin]",potency / resistance in cell survival assay,[1],highly active
same,activity in cell survival assay,[2],at relatively low concentrations
same,potency / resistance in cell survival assay,[3],highly active
same,potency / resistance in cell survival assay,[4],highly active
same,sensitivity in cell survival assay,[5],resistant
same,potency / resistance in cell survival assay,"[6]; Ba/F3 EML4-ALK G1202R, without IL-3",highly active
same,effect on phospho-ALK and total ALK protein levels,[7],decreased both phospho-ALK and total ALK protein levels
same,sensitivity in cell survival assay,[8]; H3122 CR2 (1151Tins),highly susceptible
COc1cc(N2CCC(N3CCN(C)CC3)CC2)ccc1Nc1ncnc(Nc2ccccc2S(=O)(=O)C(C)C)n1 [ASP-3026],potency in cell survival assay,[9],not as potent as crizotinib and CH5424802
same,shift in IC50 compared to wild-type ALK (fold),[6]; Ba/F3 EML4-ALK G1202R relative to wild-type,fourfold
same,potency and selectivity against wild-type ALK in vitro,[10],relatively potent and selective
COc1cc(N2CCC(N3CCN(C)CC3)CC2)ccc1Nc1ncc(Cl)c(Nc2ccccc2S(=O)(=O)C(C)C)n1 [NVP-TAE684],activity in cell survival assay,[2],less effective
C[C@@H](Oc1cc(-c2cnn(C3CCNCC3)c2)cnc1N)c1c(Cl)ccc(F)c1Cl [crizotinib],sensitivity in cell survival assay,[11],sensitive
same,sensitivity in cell survival assay,[12],highly sensitive
same,induction of apoptosis,[13],failed to induce apoptosis
same,sensitivity in cell survival assay,[5],resistant
same,IC50,"[5]; Homo sapiens, NCI-H3122, 72 h",> 1000 nM
same,induction of apoptosis,[14],marked apoptosis
same,IC50,[15],> 1000 nM
same,IC50,"[8]; Homo sapiens, NCI-H3122, 72 h",> 1000 nM
COc1cc2ncnc(Nc3ccc(F)c(Cl)c3)c2cc1OCCCN1CCOCC1 [gefitinib],induction of apoptosis,[13],failed to induce apoptosis
same,sensitivity in cell survival assay,[5],resistant
Cc1ccc(NC(=O)c2ccc(CN3CCN(C)CC3)cc2)cc1Nc1nccc(-c2cccnc2)n1 [imatinib],effect on crizotinib-resistant phenotype,[16],completely reversed the resistant phenotype
